Converted amounts (≈) assume the structure as drawn. Values belong to the compound of their own block, whether it stands above or below them.
What was measured:
[1] = Complexing constant Log K in methanol at 25° C.; type: binding
Description: K is the complexing constant of a CEM and a […] cation in methanol, at 25° C., which is measured according to the standard method of isothermal calorimetric titration.

Solubility in water = type: physicochemical
From the text: The hydrophoby or the solubility in water of a compound may be measured by standard methods and, especially, by UV/visible spectroscopy.

[2] = Liquid-liquid extraction of mono-salt saline solution; details: for Extraction rate at room temperature (RT), BaCl2 / Extraction rate at room temperature (RT), CaCl2 / Extraction rate at room temperature (RT), KCl / Extraction rate at room temperature (RT), LiCl / Extraction rate at room temperature (RT), MgCl2 / Extraction rate at room temperature (RT), NaCl / Extraction rate at room temperature (RT), SrCl2: 0.1M CEM + 3.52M ASM2 in CH2Cl2, initial salt 0.1 mol/L, Org./Water = 1, molar %
From the text: The extracting composition is obtained by solubilizing an amount of CEM and ASM in the selected fluidizing agent, dichloromethane CH2Cl2, dichlorobenzene or dichlorotoluene or any other fluidizing agent able to well solubilize the mixture CEM/ASM in order to obtain the searched final concentrations after solubilizing CEMs and ASMs in a minimum of 3 milliliters of fluidizing agent. If the selected fluidizing agent is also an ASM compound, so the selected ASM volume is at least 3 milliliters. The given concentrations of ASM2 and ASM9 are related to the added fluidizing agent volume and the concentrations of CEM are related to the added fluidizing agent+ASM volume. The extracting organic composition is then lightly heated so as to promote the solubilization of the organic compounds by means of a heat gun (temperature around 50 to 60° C.) for a few seconds (10 to 30 seconds) until a clear solution is obtained. The composition is thus left for 24 hours at room temperature so as to make sure that the obtained formulation is stable.
These sealed formulations are then orbitally stirred at 500 revolutions/minute for two hours after adding an equivalent volume of water which was distilled twice so as to allow a water saturation of the whole formulation and a pH control at the inlet and at the outlet (pH close to 7, or at least maintained after contact with the saturation water).
3 mL of the prepared extracting organic composition are then taken from the lower phase of the decanted diphasic mixture and transferred to a vial containing 3 mL of the water containing the one or more considered chloride salts (NaCl or others), then the vial is sealed and orbitally stirred (at 500 revolutions per minute) for 2 hours at room temperature (RT), that is to say between 20 and 25° C.
A verification is made to make sure that droplets in the range of 1-2 mm are really present during these stirrings in order to be sure that an equilibrium in the distribution of the considered chloride salt (NaCl or other) is achieved between both liquid phases at the end of stirring. The aspect of the organic and aqueous phases is clear and colorless or slightly turbid.
Once the 2-hour stirring is carried out, the stirring is stopped and the whole is left for decantation for about 10 minutes, at least until both phases are completely separated, at the temperature of the assay. Then, the upper aqueous phase is taken then stirred and diluted in order to analyze its salinity by a ion chromatography (a Metrohm™ device including a cation analyzing column and an anion analyzing column suitable for the ions and for the concentration of the salts which are searched for). Likewise, the chloride salt (NaCl or other) initial aqueous solution is also analyzed by this ion chromatography to determine its cation and chloride molar relative concentration before the extraction. All the extractions and analyses were duplicated.
The considered extracting composition comprises 0.1 mol/L of CEM1 and 3.52 mol/L of ASM2 in dichloromethane CH2Cl2, which was obtained as described above. The initial concentration of the considered salt in water, whether it is LiCl, NaCl, KCl, MgCl2, CaCl2, SrCl2 or BaCl2, is 0.1 mol/L.
After carrying out these 7 specific extractions (duplicated) of salts, the amounts of extracted cations in relative molar percentage before and after extraction at room temperature and at water/extracting formulation iso-volume are indicated in table I: […]

[3] = mono-salt solutions, 0.1M CEM + 3.52M ASM2 in CH2Cl2, RT

Log K(Cs^+, MeOH, 25° C.) [1]: 5.5 | Log K(K^+, MeOH, 25° C.) [1]: 5.3 | Log K(Li^+, MeOH, 25° C.) [1]: 1.0 | Log K(Na^+, MeOH, 25° C.) [1]: 4.4 | Log K(Rb^+, MeOH, 25° C.) [1]: 5.6
Structure (SMILES): CCOC(=O)COc1c2cc(C(C)(C)C)cc1Cc1cc(C(C)(C)C)cc(c1OCC(=O)OCC)Cc1cc(C(C)(C)C)cc(c1OCC(=O)OCC)Cc1cc(C(C)(C)C)cc(c1OCC(=O)OCC)Cc1cc(C(C)(C)C)cc(c1OCC(=O)OCC)C2 [CEM 11, 4-tert-Butylcalix[5]arene-pentaacetic acid pentaethyl ester]

Structure (SMILES): CC(O)c1cccc(C(F)(F)C(F)(F)C(F)(F)F)c1 (stereo not shown) [ASM5]
Solubility in water (Solubility in water): 420 µM (≈ 122 µg/mL)

Structure (SMILES): CCN(CC)C(=O)COc1c2cc(C(C)(C)C)cc1Cc1cc(C(C)(C)C)cc(c1OCC(=O)N(CC)CC)Cc1cc(C(C)(C)C)cc(c1OCC(=O)N(CC)CC)Cc1cc(C(C)(C)C)cc(c1OCC(=O)N(CC)CC)Cc1cc(C(C)(C)C)cc(c1OCC(=O)N(CC)CC)Cc1cc(C(C)(C)C)cc(c1OCC(=O)N(CC)CC)Cc1cc(C(C)(C)C)cc(c1OCC(=O)N(CC)CC)Cc1cc(C(C)(C)C)cc(c1OCC(=O)N(CC)CC)C2 [CEM 9, 4-tert-butyl-Calix[8]arene octakis(N,N-diethylacetamide)]
Log K(Ca^++, MeOH, 25° C.) [1]: 7.2

Solubility in water (Solubility in water): 2290 µM (≈ 559 µg/mL)
Structure (SMILES): OCc1cc(C(F)(F)F)cc(C(F)(F)F)c1 [ASM2, [3,5-Bis(Trifluoromethyl)phenyl]methanol]

Structure (SMILES): CCOC(=O)COc1c2cc(C(C)(C)C)cc1Cc1cc(C(C)(C)C)cc(c1OCC(=O)OCC)Cc1cc(C(C)(C)C)cc(c1OCC(=O)OCC)Cc1cc(C(C)(C)C)cc(c1OCC(=O)OCC)Cc1cc(C(C)(C)C)cc(c1OCC(=O)OCC)Cc1cc(C(C)(C)C)cc(c1OCC(=O)OCC)C2 [CEM12, 4-tert-Butylcalix[6]arene-hexaacetic acid hexaethyl ester]
Extraction rate at room temperature (RT), BaCl2 [2]: 11.8% | Extraction rate at room temperature (RT), CaCl2 [2]: 5.5% | Extraction rate at room temperature (RT), KCl [2]: 55.7% | Extraction rate at room temperature (RT), LiCl [2]: 9.0% | Extraction rate at room temperature (RT), MgCl2 [2]: 5.4% | Extraction rate at room temperature (RT), NaCl [2]: 29.6% | Extraction rate at room temperature (RT), SrCl2 [2]: 4.6% | K/Ca selectivity [2, 3]: 10.2

Log K(Ba^++, MeOH, 25° C.) [1]: 6.8 | Log K(Ca^++, MeOH, 25° C.) [1]: 7.8 | Log K(Cs^+, MeOH, 25° C.) [1]: 1.0 | Log K(K^+, MeOH, 25° C.) [1]: 5.4 | Log K(Li^+, MeOH, 25° C.) [1]: 3.0 | Log K(Mg^++, MeOH, 25° C.) [1]: 1.2 | Log K(Na^+, MeOH, 25° C.) [1]: 7.2 | Log K(Rb^+, MeOH, 25° C.) [1]: 3.0 | Log K(Sr^++, MeOH, 25° C.) [1]: 8.1
Structure (SMILES): CC(C)(C)c1cc2c(OCC(=O)N3CCCC3)c(c1)Cc1cc(C(C)(C)C)cc(c1OCC(=O)N1CCCC1)Cc1cc(C(C)(C)C)cc(c1OCC(=O)N1CCCC1)Cc1cc(C(C)(C)C)cc(c1OCC(=O)N1CCCC1)C2 [CEM 4, 4-tert-butyl-Calix[4]arene tetrakis(N-pyrrolidinylacetamide)]

Solubility in water (Solubility in water): 480 µM (≈ 137 µg/mL)
Structure (SMILES): CCCC(O)c1cc(C(F)(F)F)cc(C(F)(F)F)c1 (stereo not shown) [ASM7]

Structure (SMILES): OCc1cc(C(F)(F)C(F)(F)C(F)(F)C(F)(F)F)cc(C(F)(F)C(F)(F)C(F)(F)C(F)(F)F)c1 [ASM3]
Solubility in water (Solubility in water): 0.5 µM (≈ 0.272 µg/mL)

Log K(Cs^+, MeOH, 25° C.) [1]: 2.7 | Log K(K^+, MeOH, 25° C.) [1]: 2.4 | Log K(Li^+, MeOH, 25° C.) [1]: 2.6 | Log K(Na^+, MeOH, 25° C.) [1]: 5.0 | Log K(Rb^+, MeOH, 25° C.) [1]: 3.1
Structure (SMILES): CCOC(=O)COc1c2cc(C(C)(C)C)cc1Cc1cc(C(C)(C)C)cc(c1OCC(=O)OCC)Cc1cc(C(C)(C)C)cc(c1OCC(=O)OCC)Cc1cc(C(C)(C)C)cc(c1OCC(=O)OCC)C2 [CEM10, 4-tert-Butylcalix[4]arene-tetraacetic acid tetraethyl ester]
Extraction rate at room temperature (RT), BaCl2 [2]: 3.7% | Extraction rate at room temperature (RT), CaCl2 [2]: 4.7% | Extraction rate at room temperature (RT), KCl [2]: 14.4% | Extraction rate at room temperature (RT), LiCl [2]: 5.5% | Extraction rate at room temperature (RT), MgCl2 [2]: 5.1% | Extraction rate at room temperature (RT), NaCl [2]: 66.2% | Extraction rate at room temperature (RT), SrCl2 [2]: 5.9% | Na/Ca selectivity [2, 3]: 14

Solubility in water (Solubility in water): 70 µM (≈ 22.4 µg/mL)
Structure (SMILES): OC(c1cccc(C(F)(F)F)c1)c1cccc(C(F)(F)F)c1 [ASM8]

Solubility in water (Solubility in water): 32000 µM (≈ 5640 µg/mL)
Structure (SMILES): OCc1cccc(C(F)(F)F)c1 [ASM1, 3-(trifluoromethyl)benzyl alcohol]

Solubility in water (Solubility in water): 390 µM (≈ 122 µg/mL)
Structure (SMILES): OCc1cc(C(F)(F)F)c(C(F)(F)F)c(C(F)(F)F)c1 [ASM4]
